Assay results taken from the COVID Moonshot data (paper PMC11187573), “Identification of SARS-CoV-2 Mpro inhibitors through deep reinforcement learning for de novo drug design and computational chemistry approaches” (RSC Medicinal Chemistry, 2024).

Assays:
[1] = target: SARS-CoV-2 Main Protease (SARS-CoV-2) (UniProt P0DTD1)
[2] = target: SARS-CoV-2 Main Protease (SARS-CoV-2) (UniProt P0DTD1); remark: listed apart in the source

SMILES	inhibition ([1]; 20.0 µM)	inhibition ([1]; 50.0 µM)	relative solubility at 20 uM	relative solubility at 100 uM	inhibition ([2]; 50.0 µM)	inhibition ([2]; 20.0 µM)	IC50 [2]
O=C(CCl)N1CCCC(N(CC2CCCCC2)C2CCC(O)CC2)C1 (configuration not stated)	-11.8%	7.36%	1	1	24.9%	–	–
O=C(Cn1cccn1)N1CCN(S(=O)(=O)c2cccc(F)c2)CC1	-11.9%	1%	1	1	–	0%	–
C=CC(=O)N(c1ccc(SC)cc1)C(C(=O)Nc1c(C)cccc1CC)c1cccnc1 (configuration not stated)	11.1%	24.5%	0.85	0.67	–	0%	–
O=C(Cn1c(=O)[nH]c2ccccc21)Nc1cccc(Cl)c1	-4.28%	-9.78%	1	0.64	0%	–	–
O=C(Cc1ccc(F)cc1)Nc1cccc2cc[nH]c12	-2.43%	-33.9%	1	0.88	0%	–	–
C#Cc1ccc(CNC(=O)N2CCOCC2)cc1	1.4%	2.46%	1	1	0%	0%	–
CCN1CCN(Cc2ccccc2CNC2=NC[C@@H](C3CCCC3)N2)CC1 (stereo in doubt)	-1.16%	-20.8%	1	1	-30.8%	–	–
CCNc1ncc(C#N)cc1CN1CCN(C(=O)CCl)CC1	99.7%	102%	0.98	0.95	99.7%	–	1.64 µM
C=CC(=O)N(c1ccc(N(C)C)c(C)c1)C(C(=O)Nc1ccc(OC)cc1C)c1cccnc1 (configuration not stated)	2.51%	7.01%	0.87	0.83	–	0%	–
NS(=O)(=O)c1ccc(N2CCC(c3ccsc3)CC2)cc1	7.4%	17.1%	0.98	0.76	42%	37.4%	–
Cc1[nH]ncc1NC(=O)Cc1cccc(Cl)c1	3.64%	6.93%	0.99	1	52.1%	–	–
CCCc1cc2c(cc1S(=O)(=O)N1CCN(c3ccccc3)CC1)OCO2	8.44%	-17.1%	0.91	0.92	68.3%	–	16 µM
C=CC(=O)N(c1cc(C(C)(C)C)on1)C(C(=O)NC(C)(C)C)c1cccnc1 (configuration not stated)	7.86%	16.1%	0.98	0.91	–	28.7%	–
O=C(NCCc1ccc2c(c1)CCO2)NCc1cccc(N2C(=O)NC3(CCCC3)C2=O)c1	-29%	-12%	0.95	0.97	-30.5%	–	–
CC(=O)N1CCN(CC(=O)Nc2cccc(S(N)(=O)=O)c2)CC1	-3.12%	2.63%	1	1	–	0%	–
Cc1cccc(NC(=O)C(C#N)C(=O)C2CCC2)c1 (configuration not stated)	–	1.6%	0.99	0.99	0%	0.951%	–
Cc1ccncc1NC(=O)Cc1cccc(I)c1	17.4%	39.7%	1	1	64.3%	–	69.1 µM
CC(=O)N[C@@H](Cc1ccc(O)cc1)C(=O)NCc1ccc(Br)cc1 (stereo in doubt)	-20.1%	-24.8%	1	0.99	–	0%	–
CN(CC1COc2ccccc2O1)C(=O)c1cc(=O)[nH]c2cc(F)ccc12 (configuration not stated)	-3.67%	15.3%	0.98	0.99	0%	–	–
C=CC(=O)N(c1ccc(C(C)(C)C)cc1)C(C(=O)NC1CCCCC1)c1cccnc1 (configuration not stated)	13.3%	17.8%	0.99	1	18.6%	0%	–
CC(NC(=O)CCl)c1cc(Cl)cc(-c2ccc(S(N)(=O)=O)cc2)c1 (configuration not stated)	98.4%	94.6%	0.99	0.99	79%	–	0.526 µM
CC(NC(=O)Nc1cccc(N2CCCCC2=O)c1)c1ccn[nH]1 (configuration not stated)	-8.95%	-2.76%	1	1	0%	–	–
Cc1ccncc1NC(=O)C12CC(CO1)C2	-0.804%	12.2%	1	1	0%	–	–
CC(C)CCNC(=O)C(CC(C)C)NC(=O)C1OC1C(=O)O (configuration not stated)	0.736%	-2.95%	1	1	0%	–	–
Cc1ccncc1NC(=O)CCc1ccn[nH]1	18.9%	-26.3%	1	1	-1.76%	–	–

SMILES	inhibition ([1]; 20.0 µM)	inhibition ([1]; 50.0 µM)	relative solubility at 20 uM	relative solubility at 100 uM	inhibition ([2]; 50.0 µM)	inhibition ([2]; 20.0 µM)	IC50 [2]
O=C(NCc1cccc(C(=O)N2CCOCC2)c1)c1cnc2c(c1)c(=O)[nH]c(=O)n2Cc1ccccc1	2.69%	-3.76%	0.99	0.9	0%	–	–
O=C(Cc1ccccc1)Nc1cccc(OC2CC(=O)N2)c1 (configuration not stated)	-2.28%	-0.808%	1	1	0%	–	–
CCn1c(=O)n(CC(=O)NCc2cnccn2)c2ccccc21	1.73%	6.74%	1	1	0%	0%	–
C=C1CC1C(=O)NC(C)c1ccc(S(=O)(=O)NC)cc1 (configuration not stated)	-2.67%	-0.972%	1	1	0%	0%	–
C=CC(=O)N(c1ccc(N(C)C)c(C)c1)C(C(=O)Nc1ccc(Cl)cc1)c1cccnc1 (configuration not stated)	4.26%	12.1%	0.88	0.78	–	0%	–
C=CC(=O)N1CCN(C(=O)c2cccc(Cl)c2)CC1	–	5.55%	0.99	0.99	0%	0%	–
O=C(CCl)N1CCC(C(=O)N2CCCCC2)CC1	18.5%	31.4%	1	1	–	0.506%	–
C=CC(=O)N(c1cc(C(C)(C)C)on1)C(C(=O)Nc1cccc(CC)c1)c1cccnc1 (configuration not stated)	15.6%	43.1%	0.87	0.76	–	6.79%	–
CC(C)(Cn1c(C2CCC(=O)N2)nnc1N1CCCC(C(N)=O)C1)c1ccccc1F (configuration not stated)	-2.8%	6.51%	1	0.99	29.4%	–	–
Cc1cnn(C)c1NC(=O)Cc1cccc(Cl)c1	3.11%	5.06%	0.99	0.99	23.1%	–	–
O=C(C1CCN(S(=O)(=O)c2ccccc2)CC1)N1CCOCC1	1.87%	5.52%	1	0.99	0%	0%	–
CO[C@H](C)C(=O)N(C)c1cnccc1C (stereo in doubt)	3.08%	4.99%	1.01	0.99	18%	–	–
Cc1noc([C@@H](C)S(=O)(=O)Cc2cccc(C(F)(F)F)c2)n1 (stereo in doubt)	-7.05%	-6.94%	1.01	1	0%	–	–
O=C(Cn1nnc2ccccc21)N(Cc1ccsc1)c1ccc(-c2ccccc2)cc1	30.4%	39.1%	0.64	0.5	36.1%	–	–
Cc1ccncc1NC(=O)Nc1cccc(C#N)c1	19.4%	44.3%	1	0.97	55.7%	23.8%	49.3 µM
CCOc1ccccc1OC1CCN(C(=O)c2cc(=O)[nH]c3cc(F)ccc23)C1 (configuration not stated)	13.4%	21.4%	1	0.99	0%	–	–
CO[C@H](C)C(=O)Nc1cnccc1C (stereo in doubt)	4.95%	8.97%	1.01	1	6.56%	–	–
C=CC(=O)N(c1ccc(N(C)C)c(C)c1)C(C(=O)Nc1c(C)cccc1CC)c1cccnc1 (configuration not stated)	6.4%	13.2%	0.9	0.77	–	0%	–
CS(=O)(=O)NCCc1cccc(O)c1	-1.8%	0.0445%	1	1	1.46%	-2.45%	–
Cc1cccc(NC(=O)C(C#N)C(=O)CC(C)C)c1 (configuration not stated)	–	-0.258%	1	1	0%	0%	–
O=C(Nc1nncn1C1CC1)[C@H]1CCOc2ccc(Cl)cc21 (stereo in doubt)	-13.3%	-7.61%	1.01	1	-19.4%	–	–
CC1(C)Cc2cccc(OCCNC(=O)c3cc(=O)[nH]c4ccc(F)cc34)c2O1	13.9%	23.7%	0.98	0.84	42%	–	–
C=CC(=O)N(c1ccc(C2(C)CC2)cc1)C(C(=O)Nc1ccc(Cl)cc1)c1cccnc1 (configuration not stated)	–	-9.81%	0.95	0.56	-0.67%	0%	–
C=CC(=O)N(c1ccc(C(C)(C)C)cc1)C(C(=O)NC(C)(C)C)c1cncc(OC)c1 (configuration not stated)	-13.4%	-6.87%	1	0.99	8.47%	0.0741%	–
C=CC(=O)N(c1ccc(C(F)(F)F)cc1)C(C(=O)NCCc1cccc(F)c1)c1cncc(C#N)c1 (configuration not stated)	53.5%	93.2%	1	0.99	96.5%	–	3.01 µM

SMILES	inhibition ([1]; 20.0 µM)	inhibition ([1]; 50.0 µM)	relative solubility at 20 uM	relative solubility at 100 uM	inhibition ([2]; 50.0 µM)	inhibition ([2]; 20.0 µM)	IC50 [2]
Nc1cccc(C2CN(C(=O)CCl)Cc3ccccc32)c1 (configuration not stated)	48%	53.4%	0.97	0.96	100%	–	11.4 µM
Cc1cnn(-c2ccncc2NC(=O)Cn2cc(C)c3ccccc32)c1	-8.61%	-0.417%	0.59	0.1	0%	–	–
Cc1ccnc(C)c1NC(=O)C1CC2CC2C1 (configuration not stated)	10.2%	15.6%	1	1	0%	–	–
CC(C)NC1CCN(c2ccc(S(N)(=O)=O)cc2)CC1	-1.27%	-1.56%	1	0.98	0.505%	0.29%	–
NS(=O)(=O)c1ccc(C(=O)N2Cc3ccccc3C(c3ccccc3)C2)cc1 (configuration not stated)	0.809%	8.23%	0.95	0.96	–	0%	–
C=CC(=O)N(c1ccc(C(C)(C)C)cc1)C(C(=O)NC(C)(C)C)c1cncc2ccccc12 (configuration not stated)	-17.7%	-17.5%	0.85	0.56	0%	0%	–
CCN1CCN(Cc2ccccc2CNC(=O)[C@@]2(C)CCN2C(=O)OC(C)(C)C)CC1 (stereo in doubt)	-6.3%	-0.697%	1	1	13.2%	–	–
CC(=O)N1CCN(S(=O)(=O)C2=CC[SH]=C2)CC1	–	-20.6%	0.99	1	3.62%	0%	–
O=C(Cc1cccc(Cl)c1)Nc1nncs1	-9.94%	-3.05%	1	0.78	0%	–	–
Nc1ncc(S(=O)(=O)NCc2cccc(Cl)c2)cn1	5.4%	-6.16%	1	0.97	6.76%	–	–
CCc1nnnn1-c1ccccc1NC(=O)C1(c2cncc(Br)c2)CC1	–	10.2%	1	1	0%	0%	–
NS(=O)(=O)c1ccc(N2CCC(CO)CC2)cc1	3.95%	7.03%	1	1	2.83%	-1.13%	–
C#CCOc1ccc(N(C(=O)C=C)C(C(=O)NC(C)(C)C)c2cccnc2)cc1 (configuration not stated)	-13.4%	-14.8%	1	1	–	0%	–
C=CC(=O)N(c1cc(C(C)(C)C)on1)C(C(=O)NCCc1cccc(F)c1)c1cncc(C)c1 (configuration not stated)	17.5%	24.8%	1	0.91	0%	–	–
C=CC(=O)N(c1ccc(C(C)OC)cc1)C(C(=O)Nc1ccc(Cl)cc1)c1cccnc1 (configuration not stated)	12.3%	26.1%	0.84	0.76	–	0%	–
CCN(Cc1cccc(-c2ccncc2)c1)C(=O)Cc1noc2ccccc12	-25.4%	-15.8%	0.98	0.85	–	0%	–
C=CC(=O)N(c1ccc(C(C)(C)C)cc1)C(C(=O)NCC1CCCO1)c1cccnc1 (configuration not stated)	70.8%	44.1%	1	0.99	25.6%	0%	–
CC(=O)N1CCN(S(=O)(=O)c2ccsc2)CC1	–	-20.6%	0.99	1	3.62%	0%	–
O=S1(=O)CCC(N2CCN(c3nc(-c4cccnc4)nc4ccccc34)CC2)C1 (configuration not stated)	13%	14.1%	1	0.94	0%	0%	–
O=C(NCc1cncs1)Nc1cccc(N2CCOCC2)c1	5.65%	13.6%	1	1.01	23.8%	0.672%	–
O=C(Cc1cc(Cl)c2c(c1)OCCO2)Nc1cnccc1-c1ccccc1	-45.1%	-10.4%	0.88	0.94	0%	–	–
CS(=O)(=O)c1oc(-c2ccc(F)cc2)nc1S(=O)(=O)c1ccc(Cl)cc1	10.8%	11%	0.78	0.45	0%	–	–
N#Cc1ccnc(CNC(=O)Cc2c[nH]c3ncccc23)c1	-23.2%	-17.2%	0.97	0.98	–	0%	–
CCC(C)(C)CCN(Cc1ccsc1)C(=O)Cn1nnc2ccccc21	–	48.3%	0.99	0.73	40.1%	-4.79%	–
